According to US20180110770A1, “FERROPTOSIS AND GLUTAMINOLYSIS INHIBITORS AND METHODS OF TREATMENT” (MEMORIAL SLOAN-KETTERING CANCER CENTER, priority 2015, published 2018):
Peptide text beside a SMILES is read from it. * marks the point of attachment. Cbz = O=C(OCc1ccccc1)*; CH2F = FC*

Key:
MEFs [1] = test: Serum-dependent necrosis (serum-induced cell death) upon amino acid or cystine starvation; format: cell-based, mouse; settings: 12 hrs, NAC 0.2 mM, Trolox 0.2 mM; for inhibition of serum-dependent necrosis (cell viability / cell death): total amino acid starvation in the presence of FBS, GPNA 5 mM, 968 20 μM, AOA 0.5 mM, BPTES 10 μM, DFO 80 μM, CPX 10 μM, BIP 100 μM, cysteine/cystine 0.2 mM, U0126 and PD0325901 10 μM; for inhibition of serum-dependent cell death triggered by cystine starvation: cystine starvation in the presence of serum
Protocol: (§1) To induce cell death, 80%-confluent cells were washed with PBS twice, and then cultured in amino acid-free medium, with specific factors added as indicated in individual experiments. Cell death was analyzed by propidium iodide (PI) staining coupled with microscopy or flow cytometry. Alternatively, cell viability was determined using the CellTiter-Glo luminescent Cell Viability Assay (Promega). In assays using WT MEFs, viability was calculated by normalizing ATP levels to cells treated with amino acid-starvation in the presence of 10% (v/v) diFBS, while in assays using bax/bak-DKO MEFs, ATP levels were normalized to cells treated with amino acid and FBS double starvation.

MEFs [2] = test: Erastin-induced ferroptosis; format: cell-based, mouse; settings: erastin 1 μM, 12 hrs, DFO 80 μM, CPX 10 μM, 968 20 μM, AOA 0.5 mM, U0126 and PD0325901 10 μM
TNF-α induced apoptosis = test: TNF-α induced apoptosis; format: cell-based; settings: TNF-α 50 ng/ml + SMAC mimetic 0.5 μM; AOA 0.5 mM
[3] = 2,2-Diphenyl-1-picrylhydrazyl assay for antioxidant activity; settings: compound 50 μM, DPPH 50 μM in methanol, 1 hr, room temperature, absorbance at 517 nm
Protocol: The experiment was performed as described previously (Blois, 1958; Dixon et al., 2012). 2,2-Diphenyl-1-picrylhydrazyl (DPPH) (Sigma Cat#D9132) was dissolved in methanol to a final concentration of 50 μM. The tested compounds were added to 1 ml of DPPH solution with a final concentration of 50 μM. Samples were mixed well and incubated at room temperature for 1 hr. The absorbance at 517 nm (indicating the concentration of non-reduced DPPH) was measured using methanol as control.

[4] = system: hearts isolated from wild-type mice; test: Ischemia-reperfusion (I/R) analysis using isolated hearts (ex vivo heart model); format: in vivo; settings: ex vivo mouse heart, DFO 80 μM; for left ventricular developed pressure (LVDP) recovery at the end of reperfusion / myocardial infarct size (TTC staining): 30 min global ischemia, 60 min reperfusion; for left ventricular developed pressure (LVDP) recovery at the end of reperfusion: 968 25 μM in perfusate, vehicle 43.20%±1.66%; for myocardial infarct size (TTC staining): vehicle 30.82%±0.57%
Protocol: Male C57BL/6J mice weighing 25-30 g at age 12-14 weeks were used in all experiments and maintained in a temperature-controlled room with alternating 12:12-h light-dark cycles. Experiments were performed using an isovolumic isolated heart preparation as published and modified for the use in mice hearts ([…] et al., 2009; Hwang et al., 2004). Hearts from 12-14 weeks aged wild-type mice were isolated, and retrograde perfused at 37° C. in a non-recirculating mode through the aorta at a rate of 2.5 ml/min. Hearts were perfused with modified Krebs-Henseleit (KH) buffer (118 mM NaCl, 4.7 mM KCl, 2.5 mM CaCl2, 1.2 mM MgCl2, 25 mM NaHCO3, 5 mM glucose, 0.4 mM palmitate, 0.2 mM glutamine, 10 μg/ml human recombinant transferrin, 0.4 mM BSA, and 70 mU/1 insulin). Left ventricular developed pressure (LVDP) was measured using a latex balloon in the left ventricle. LVDP and coronary perfusion pressure were monitored continuously on a four-channel Gould recorder. Hearts were perfused either with KH buffer containing vehicle (DMSO) or the Compounds throughout the FR protocol. After an equilibration period of 30 min, global ischemia was performed for 30 min followed by 60 minutes of reperfusion. Cardiac injury due to I/R stress was assessed by measuring LDH release in the perfusates that were collected during 60 min of reperfusion. […] After 60 min of reperfusion, the heart is perfused with Evans blue in-situ and then removed. Hearts were sliced into cross-sections at approximately 1-mm intervals. The sections were embedded in the TTC solution at 37° C. for 10 min, and area of infarct as a percent of the whole heart was quantified as described. Functional recovery of LVDP was expressed by comparing to the initial LVDP before ischemia. All animal experiments were approved by the Institutional Animal Care and Use Committees of New York University School of Medicine and conformed to the guidelines outlined in the National Institutes of Health Guide for Care and Use of Laboratory Animals (NIH Pub. No. 85-23, 1996).

MEK1/2 = settings: MEFs, PD0325901 10 μM, U0126 10 μM, Western blotting
bax/bak-DKO MEFs = test: Death-inducing activity of transferrin and L-Gln under amino acid starvation; format: cell-based, mouse; settings: 12 hrs
Protocol: as §1

MEFs [5] = test: Death-inducing activity of serum small molecules under amino acid starvation with diFBS; format: cell-based, mouse; settings: 12 hrs, α-KG 4 mM also in the presence of AOA 0.5 mM, glucose with diFBS or transferrin
Protocol: as §1

caspase-3 activation = test: Caspase-3 activation induced by UV light (Western blot); format: cell-based

Compound: NOCC(=O)O [AOA, amino-oxyacetate]
- inhibition of serum-dependent necrosis (cell viability / cell death) (MEFs [1]): could inhibit
- inhibition of erastin-induced ferroptosis (PI staining, flow cytometry) (MEFs [2]): can also inhibit
- inhibition of TNF-α induced apoptosis (TNF-α induced apoptosis): cannot inhibit

Compound: O=C(Cc1ccccc1)Nc1nnc(CCSCCc2nnc(NC(=O)Cc3ccccc3)s2)s1 [BETPS, Bis-2-(5-phenylacetamido-1,3 ,4-thiadiazol-2-yl)ethyl sulfide]
- inhibition of serum-dependent necrosis (cell viability / cell death) (MEFs [1]): failed to block

Compound: c1ccc(-c2ccccn2)nc1 [BIP, 2,2-bipyridyl]
- inhibition of serum-dependent necrosis (cell viability / cell death) (MEFs [1]): blocked

Compound: Cc1cc(C2CCCCC2)n(O)c(=O)c1 [CPX, ciclopirox olamine]
- inhibition of serum-dependent necrosis (cell viability / cell death) (MEFs [1]): blocked
- inhibition of erastin-induced ferroptosis (PI staining, flow cytometry) (MEFs [2]): inhibited

Compound: CN(C)c1ccc(C2Nc3ccc4ccccc4c3C3=C2C(=O)CC(C)(C)C3)cc1Br (stereo not drawn) [Compound 968]
- inhibition of serum-dependent necrosis (cell viability / cell death) (MEFs [1]): completely inhibited
- antioxidant activity (reduction of DPPH) [3]: showed no anti-oxidant function
- inhibition of erastin-induced ferroptosis (PI staining, flow cytometry) (MEFs [2]): can also inhibit
- left ventricular developed pressure (LVDP) recovery at the end of reperfusion [4]: 75.25%±5.75%
- myocardial infarct size (TTC staining) ([4]; 968 25 μM): 17.36%±0.47%
- release of lactate dehydrogenase (LDH) during reperfusion ([4]; perfusates collected during 60 min reperfusion, 968 25 μM): significantly inhibited

Compound: N#CC(=C(/N)Sc1ccccc1N)/C(C#N)=C(\N)Sc1ccccc1N [Compound U0126]
- inhibition of serum-dependent necrosis (cell viability / cell death) (MEFs [1]): able to block
- antioxidant activity (reduction of DPPH) [3]: anti-oxidative property
- inhibition of MEK1/2 kinase activity (MEK1/2): confirmed the inhibition of MEK1/2 kinase activity
- inhibition of erastin-induced ferroptosis (PI staining, flow cytometry) (MEFs [2]): able to block

Compound: CC(=O)N(O)CCCCCNC(=O)CCC(=O)N(O)CCCCCNC(=O)CCC(=O)N(O)CCCCCN [DFO, Deferoxamine]
- left ventricular developed pressure (LVDP) recovery at the end of reperfusion [4]: 64.75%±4.09%
- myocardial infarct size (TTC staining) ([4]; 968 25 μM): 22.60%±0.97%

Compound: CCOC(=O)c1ccc(NC2CCCCC2)c(N)c1 [Fer-1]
- inhibition of serum-dependent cell death triggered by cystine starvation (MEFs [1]): can block
- inhibition of serum-dependent necrosis (cell viability / cell death) (MEFs [1]): can block

Compound: N[C@@H](CCC(=O)Nc1ccc([N+](=O)[O-])cc1)C(=O)O [GPNA, L-g-glutamyl-p-nitroanilide]
- inhibition of serum-dependent necrosis (cell viability / cell death) (MEFs [1]): markedly blocked

Compound: N[C@@H](CCC(=O)N[C@@H](CS)C(=O)NCC(=O)O)C(=O)O [GSH, glutathione]
- inhibition of serum-dependent cell death triggered by cystine starvation (MEFs [1]): effectively blocked
- inhibition of serum-dependent necrosis (cell viability / cell death) (MEFs [1]): effectively blocked

Compound: NC(=O)CC[C@H](N)C(=O)O [L-Gln, L-glutamine]
- induction of cell death by L-Gln alone (bax/bak-DKO MEFs; L-Gln 0.1 mM alone): induced modest but measurable cell death
- induction of cell death in the presence of diFBS (MEFs [5]): induced potent cell death

Compound: CC(=O)N[C@@H](CS)C(=O)O [NAC, N-acetylcysteine]
- inhibition of serum-dependent cell death triggered by cystine starvation (MEFs [1]): effectively blocked
- inhibition of serum-dependent necrosis (cell viability / cell death) (MEFs [1]): effectively blocked

Compound: O=C(NOC[C@H](O)CO)c1ccc(F)c(F)c1Nc1ccc(I)cc1F [PD0325901]
- antioxidant activity (reduction of DPPH) [3]: showed no anti-oxidant function

Compound: Cc1c(C)c2c(c(C)c1O)CCC(C)(C(=O)O)O2 (stereo not drawn) [Trolox, 6-hydroxy-2,5,7,8-tetramethylchroman-2-carboxylic acid]
- inhibition of serum-dependent cell death triggered by cystine starvation (MEFs [1]): effectively blocked
- inhibition of serum-dependent necrosis (cell viability / cell death) (MEFs [1]): effectively blocked

Compound: N[C@@H](CS)C(=O)O [cysteine]
- inhibition of serum-dependent necrosis (cell viability / cell death) (MEFs [1]): rescued cells from necrosis

Compound: N[C@@H](CSSC[C@H](N)C(=O)O)C(=O)O [cystine]
- inhibition of serum-dependent necrosis (cell viability / cell death) (MEFs [1]): rescued cells from necrosis

Compound: COC(=O)C[C@H](NC(=O)[C@H](C)NC(=O)[C@@H](NC(=O)OCc1ccccc1)C(C)C)C(=O)CF [zVAD-FMK] (Cbz-Val-Ala-Asp(OMe)-CH2F)
- inhibition of serum-dependent necrosis (cell viability / cell death) (MEFs [1]): failed to block
- block of caspase-3 activation induced by UV light (caspase-3 activation): can block

Compound: COC(=O)CCC(=O)C(=O)OC [α-KG, Dimethyl-α-Ketoglutarate]
- induction of cell death in the presence of diFBS (MEFs [5]): can induce potent cell death

Compound: L-alanine-L-glutamine [A-Q]
- induction of cell death in the presence of diFBS (MEFs [5]): able to induce cell death

Compound: recombinant human holo-transferrin: recombinant human holo-transferrin expressed in rice
- induction of cell death in the presence of smFBS (bax/bak-DKO MEFs; with smFBS): could induce cell death in a dose-dependent manner

Compound: transferrin: iron carrier protein in serum
- cell death on addition of transferrin to L-Gln (bax/bak-DKO MEFs; with L-Gln 0.1 mM): further enhanced cell death
